Measurements taken from patent US10160972B2, “Methods and materials for treating cancer” (Mayo Foundation for Medical Education and Research, priority 2012, dated 2018).

Tests used:
[1] = test system: A498, Caki1, Caki2, and ACHN ccRCC cell lines; experiment: Temsirolimus dose out, cell proliferation; assay type: cell-based, human; settings: monotherapy, four ccRCC cell lines; no dose response could be determined
Method: (§1) Drug stocks were prepared in DMSO. Monotherapeutic treatment identified drug dose-response. […] Temsirolimus dosing was performed as described in the text.
After identifying appropriate cell proliferative dose responses for pazopanib and sunitinib in four ccRCC cell lines including A498, Caki1, Caki2, and ACHN, both TKIs were dosed in combination with A939572 up to approximately the IC50 dose for each drug in the Caki1 and the A498 cell lines. […] Combinatorial treatments were therefore done using a fixed dose of Tem (0.1 nM, 1 nM, and 10 nM) combined with a dose range of A939572 up to the IC50 in Caki1, A498, Caki2 and ACHN cells.

A498 ccRCC xenografts [2] = experiment: Western blot of CHOP in xenograft tumor tissue; assay type: in vivo, athymic nude (nu/nu) mice; settings: normalized to β-actin, tumor tissue samples
Method: (§2) Protein extracts, electrophoresis, and membrane transfers were prepared as previously described (Copland J A, Marlow L A, Kurakata S, Fujiwara K, Wong A K, Kreinest P A, et al. Novel highaffinity PPARgamma agonist alone and in combination with paclitaxel inhibits human anaplastic thyroid carcinoma tumor growth via p21WAF1/CIP1. Oncogene. 2006; 25:2304-17). Primary antibodies included SCD1, PARP, DDIT3, BiP, sXBP1, and β-actin. A Supersignal chemiluminescent kit was used to perform detection.

SCD1 [3] = settings: breast cancer cells, previously reported; cited from earlier work
A498 ccRCC xenografts [4] = experiment: IHC analysis of resected xenograft tumors
Method: The TMAs were mounted on slides from paraffin-embedded blocks according to IHC procedure and samples were blocked with Diluent that contained Background Reducing Components (Dakocytomation) for 30 min and then probed for SCD1, Ki67, Caspase-3, CD31, phospho-mTOR, DDIT3, and XBP1. […] Stain scoring was done using algorithms generated with Imagescope software created by a histologist. H-scores were calculated based upon signal intensity (0-3+) using the formula: [(1+%×1)+(2+%×2)+(3+%×3)], intensity (I)-scores were calculated by dividing signal intensity by area, and nuclear (N)-scores were calculated by dividing % positive nuclei by total nuclei examined per area. Cases where insufficient tumor tissue presented were excluded from the study. 20× images were obtained using Scanscope XT and Imagescope software.
IHC analysis of tumors resected from each treatment group was analyzed for proliferation, angiogenesis, and cell death (FIG. 6B).

A375 melanoma cells = experiment: Cell number growth inhibition assay; assay type: cell-based, human
Method: (§3) A number of cancer cell lines were tested to determine whether SCD1 protein expression correlates with growth inhibition of an SCD1 inhibitor in human cancer cell lines.
(§4) Cells (20,000/ml) were plated in 12 well cell culture plates, allowed to attach and treated with the indicated dose of SCD1 inhibitor ([…]) or standard of care (gemcitabine). Cell number was counted using a Coulter Counter. As show in FIG. 7, the data are expressed as percent of DMSO control. Each value represents triplicates. Western analysis for SCD1 protein expression was performed on each cell line with beta-actin as the loading control.
(§5) The following cell lines were studied using a similar method as that described above.

Mela 11 melanoma cells = experiment: Cell number growth inhibition assay; assay type: cell-based, human
Method: as §3, §4, §5

[5] = test system: A549 nonsmall cell lung cancer cells; experiment: Cell number growth inhibition assay; assay type: cell-based, human
Method: as §3, §4, §5

[6] = test system: HOV TAX2 ovarian cancer cells; experiment: Cell number growth inhibition assay; assay type: cell-based, human
Method: as §3, §4, §5

[7] = test system: KTC3 thyroid cancer cells; experiment: Cell number growth inhibition assay; assay type: cell-based, human
Method: as §3, §4, §5

FF1 cells = experiment: Cell number growth inhibition assay; assay type: cell-based, human
Method: A number of cancer cell lines were tested to determine whether SCD1 protein expression correlates with growth inhibition of an SCD1 inhibitor in human cancer cell lines. […] Cell number was counted using a Coulter Counter. […] Each value represents triplicates.

SCD1 [8] = experiment: Lentiviral shRNA knockdown of SCD1 in ccRCC cell lines (Caki1 and A498); assay type: cell-based, human
Method: (§6) MISSION shRNA pLK0.1 constructs were used to make self-inactivating shRNA lentiviruses for human SCD1 (clones: NM_005063.3-1200s1c1[shSCD1200], NM_005063.3-780s1c1[shSCD780]), and a non-target (NT) random scrambled sequence control (SHC002). Transfection reagents Lipofectamine 2000 and ViraPower were used to generate lentiviruses using HEK293FT viral progenitor cells. ccRCC and NRE cells were incubated with lentivirus plus 5 μg/mL polybrene for 24 hrs prior to clonal selection with Puromycin.
(§7) An RNAqueous Midi Kit was utilized to extract and purify RNA from cell lines. Human tissue RNA was prepared using TRIzol® per manufacturer's protocol followed by purification using the RNAqueous Midi Kit. The O.D. 260/280 ratio of the mRNA was at least 1.8 and the 18s/28s bands were verified on a 1% agarose gel. cDNA was prepared from purified RNA samples using High Capacity cDNA Reverse Transcriptase Kit per manufacturer's instruction. TaqMan®Fast Universal PCR Master Mix and TaqMan®FAMTM dye-labeled probes including POLR2A (Hs00172187_m1) (normalization control), SCD1 (Hs01682761_m1), HSPA5 (Hs99999174_m1), CEBPβ (CEBPB Hs00270923_s1), GADD45A (Hs00169255_m1), DDIT3 (Hs01090850_m1), and HERPUD1 (Hs01124269_m1) were combined with prepared cDNA samples to analyze relative mRNA expression via qPCR. Fold change values were compared between normal and tumor, non-target scrambled lentiviral and target lentiviral infected, and DMSO vs. A939572 treated samples using the ΔΔCt method (Schmittgen T D, Livak K J. Analyzing real-time PCR data by the comparative C(T) method. Nat Protoc. 2008; 3:1101-8).
as §2
To determine the involvement of SCD1 expression in renal cell carcinoma proliferation, two separate lentiviral constructs were designed to express shRNA molecules having the ability to reduce SCD1 expression. The first lentiviral construct was designed to express an shRNA designated SCD780. The sequence of SCD780 was as follows: 5′-[…]-3′ (SEQ ID NO:1). The second lentiviral construct was designed to express an shRNA designated SCD1200. The sequence of SCD1200 was as follows: 5′-[…]-3′ (SEQ ID NO:2). A non-target lentiviral construct was designed as a control.

SCD1 [9] = experiment: Lentiviral shRNA knockdown of SCD1 in normal renal epithelial cells (K359N and K360N); assay type: cell-based, human
Method: as §6
as §7, with “Fold change values were compared between normal and tumor, non-target scrambled lentiviral and target lentiviral infected, and DMSO vs. A939572 treated samples using the ΔΔCt method (Schmittgen T D, Livak K J. Analyzing real-time PCR data by the comparative C(T) method. Nat Protoc. 2008; 3:1101-8).” left out

[10] = test system: Caki1 and A498 ccRCC cell lines; experiment: Proliferation assay of shSCD lentiviral infected cells; assay type: cell-based, human; settings: vs NT control or treated normal kidney cells (K359N and K360N), counted after five days
Method: as §1, §6
(§8) Media alone and BSA supplemented media served as control groups. Proliferation assay of NT control versus shSCD780 infected Caki1 and A498 cells cultured in media with or without OABSA were counted after five days. […] SCD1 knockdown by lentiviral infection was confirmed at the protein level (FIG. 3B).

[11] = test system: Caki1 and A498 ccRCC cell lines; experiment: PARP cleavage immunoblot of shSCD lentiviral infected cells; assay type: cell-based, human
Method: as §6, §2, §8

[12] = test system: BCJ4T bladder cancer cells; experiment: Cell number growth inhibition assay; assay type: cell-based, human
Method: as §3, §4, §5

[13] = test system: HT1376 bladder cancer cells; experiment: Cell number growth inhibition assay; assay type: cell-based, human
Method: as §3, §4, §5

T24 bladder cancer cells = experiment: Cell number growth inhibition assay; assay type: cell-based, human
Method: as §3, §4, §5

Caki1 and A498 cells = experiment: Western blot of ER stress markers; assay type: cell-based, human; settings: 75 nM drug or shSCD780 knockdown, 48 hours
Method: as §2

A498 cells = experiment: qPCR of five ER stress genes; assay type: cell-based, human
Method: as §7
(§9) In order to validate the specificity of ER stress induction mediated by both A939572 and shSCD780, rescue assays were performed using OA-BSA in Caki1 and A498 cells qPCR analysis of five ER stress genes identified in the gene array including BiP, CHOP, HERPUD1 (homocysteine-inducible, ER-stress inducible, ubiquitin-like-1), GADD45a (DNA damage inducible transcript 1, DDIT1), and CEBPβ (CCAAT/enhancer binding protein beta) were examined.

Caki1 cells = experiment: qPCR of five ER stress genes; assay type: cell-based, human
Method: as §7, §9

[14] = test system: ATF6 luciferase reporter in Caki1 cells
Method: (§10) For transient transfection, Caki1 and A498 cells were transfected using Lipofectamine 2000. Cells treated with DMSO vs. A939572 or infected using shSCD780 lentiviral constructs vs. NT control were harvested after 48 hrs using Promega's Dual Luciferase assay kit per the manufacturer's protocol and luciferase activity was measured using a Veritas Luminometer; reported as relative luminescence.
(§11) Caki1 and A498 cells transfected with an ATF6 luciferase reporter (p5xATF6-GL3) were treated with a 75 nM dose of A939572 or were infected with shSCD780. Resulting luminescence was measured after 48 hours.

[15] = test system: ATF6 luciferase reporter in A498 cells
Method: as §10, §11

[16] = test system: SNU449 liver cancer cells; experiment: Cell number growth inhibition assay; assay type: cell-based, human; settings: SNU449 liver cancer cells
Method: as §3, §4, §5

Molecule: CO[C@H]1C[C@@H]2CC[C@@H](C)[C@@](O)(O2)C(=O)C(=O)N2CCCC[C@H]2C(=O)O[C@H]([C@H](C)C[C@@H]2CC[C@@H](OC(=O)C(C)(CO)CO)[C@H](OC)C2)CC(=O)[C@H](C)/C=C(\C)[C@@H](O)[C@@H](OC)C(=O)[C@H](C)C[C@H](C)/C=C/C=C/C=C/1C [Temsirolimus, temsirolimus]
- reduction in cell proliferation [1]: limited reduction in cell proliferation
- CHOP expression (ER stress) (A498 ccRCC xenografts [2]): induction of CHOP, although to a lesser extent
- SCD1 expression (SCD1 [3]): decrease SCD1 expression
- phosphorylated mTOR expression (A498 ccRCC xenografts [4]; compared to the Placebo and A939572 groups): decreased expression
- angiogenesis, intensity of microvessel density (CD31) (A498 ccRCC xenografts [4]; cumulative scores not considered significant): slight decrease
- cell death, cleaved caspase-3 (CC3) (A498 ccRCC xenografts [4]; vs placebo / other groups): moderate increase
- proliferation, percent positivity of nuclear Ki67 staining (A498 ccRCC xenografts [4]; vs placebo control): decreased proliferation

Molecule: Cn1nnc2c(C(N)=O)ncn2c1=O [Temodar]
- growth inhibition (A375 melanoma cells): dose responsively inhibits growth
- growth inhibition (Mela 11 melanoma cells): not

Molecule: CC(=O)O[C@H]1C(=O)[C@@]2(C)[C@H]([C@H](OC(=O)c3ccccc3)[C@]3(O)C[C@H](OC(=O)[C@H](O)[C@@H](NC(=O)c4ccccc4)c4ccccc4)C(C)=C1C3(C)C)[C@]1(OC(C)=O)CO[C@@H]1C[C@@H]2O [Taxol]
- growth inhibition [5]: growth inhibitory
- growth inhibition [6]: growth inhibitory
- growth inhibition [7]: growth inhibitory
- growth inhibition (FF1 cells): minimal growth inhibitory effects

Molecule: SCD1200: lentiviral construct expressing shRNA against SCD1, 5′-CGTCCTTATGACAAGAACATT-3′ (SEQ ID NO:2)
- SCD1 mRNA expression levels (SCD1 [8]): reduced SCD1 mRNA expression levels
- SCD1 polypeptide expression levels (SCD1 [8]): reduced SCD1 polypeptide expression levels
- SCD1 mRNA expression levels (SCD1 [9]): reduced SCD1 mRNA expression levels
- proliferation / growth [10]: reduced proliferation
- apoptosis by PARP cleavage [11]: induction of apoptosis

Molecule: N.N.[Cl][Pt][Cl] [Cisplatin]
- growth inhibition [12]: minimal growth inhibitory effects
- growth inhibition [13]: minimal growth inhibitory effects
- growth inhibition (T24 bladder cancer cells): minimal growth inhibitory effects

Molecule: shSCD780: lentiviral construct expressing shRNA against SCD1, 5′-CTACGGCTCTTTCTGATCATT-3′ (SEQ ID NO:1)
- protein expression of ER stress markers BiP, CHOP, spliced-XBP1 (Caki1 and A498 cells): amplified expression
- ER stress gene expression with addition of OA-BSA (A498 cells; A498, + OA-BSA): successfully blocked
- mRNA expression of ER stress genes BiP, CHOP, HERPUD1, GADD45a, CEBPβ (A498 cells; A498, vs DMSO+BSA or NT control): 4 of the 5 were significantly induced
- ER stress gene expression with addition of OA-BSA (Caki1 cells; Caki1, + OA-BSA): successfully blocked
- mRNA expression of ER stress genes BiP, CHOP, HERPUD1, GADD45a, CEBPβ (Caki1 cells; Caki1, vs DMSO+BSA or NT control): all of the ER stress genes were significantly induced
- SCD1 mRNA expression levels (SCD1 [8]): reduced SCD1 mRNA expression levels
- SCD1 polypeptide expression levels (SCD1 [8]): reduced SCD1 polypeptide expression levels
- SCD1 mRNA expression levels (SCD1 [9]): reduced SCD1 mRNA expression levels
- proliferation / growth [10]: significant decreases in growth
- proliferation / growth ([10]; listed as SCD780): reduced proliferation
- apoptosis by PARP cleavage [11]: induction of apoptosis
- reporter activation with addition of OA-BSA ([14]; Caki1, + OA-BSA): significantly reduced reporter activation
- luciferase activity, fold change induction ([14]; Caki1, +BSA, 75 nM A939572 or shSCD780, 48 hours, vs DMSO and NT controls): 1.7 fold change
- reporter activation with addition of OA-BSA ([15]; A498, + OA-BSA): significantly reduced reporter activation
- luciferase activity, fold change induction ([15]; A498, +BSA, 75 nM A939572 or shSCD780, 48 hours, vs DMSO and NT controls): 2.0 fold change

Molecule: CNC(=O)c1cc(Oc2ccc(NC(=O)Nc3ccc(Cl)c(C(F)(F)F)c3)cc2)ccn1 [Sorafenib]
- effective concentrations [16]: 1 to 10 µM
